From ChEMBL document CHEMBL5233262, “Anti-inflammatory activity of naturally occuring diarylheptanoids - A review” (Bioorg Med Chem, 2021) come the findings set out here.

Test [1] concerns Hep 3B2. The test can be described thus: Antiinflammatory activity in human Hep3B cells assessed as inhibition of IL-6 stimulated ICAM-1 mRNA expression at 30 uM preincubated for 60 mins followed by IL-6 stimulation and measured after 20 mins by RT-PCR analysis. Format: functional. The conditions noted are these: 1.333 h, time 80 min.
Test [2] concerns Hep 3B2. The test can be described thus: Antiinflammatory activity in human Hep3B cells assessed as inhibition of IL-6 stimulated CRP mRNA expression at 30 uM preincubated for 60 mins followed by IL-6 stimulation and measured after 20 mins by RT-PCR analysis. The conditions noted are these: 1.333 h, time 80 min. Type of test: functional.
Test [3] deals with Hep 3B2. The test is described as follows: Antiinflammatory activity in human Hep3B cells assessed as inhibition of IL-6 stimulated IL-1beta mRNA expression at 30 uM preincubated for 60 mins followed by IL-6 stimulation and measured after 20 mins by RT-PCR analysis. Type of test: functional. The conditions noted are these: 1.333 h, time 80 min.
Test [4] has as its system Hep 3B2. The test is described as follows: Antiinflammatory activity in human Hep3B cells assessed as inhibition of IL-6 stimulated SOCS3 mRNA expression at 30 uM preincubated for 60 mins followed by IL-6 stimulation and measured after 20 mins by RT-PCR analysis. Format: functional. To be noted: 1.333 h, time 80 min.
For test [5], the system named is HUVEC. The test can be described thus: Antiinflammatory activity in human HUVEC cells assessed as TNFalpha induced VCAM-1 expression at 5 to 20 uM preincubated for 1 hrs followed by TNFalpha stimulation and measured after 6 hrs by fluorescence analysis. The conditions noted are these: dose 5-20 µM, time 7 hrs. Type of test: functional.
The subject of test [6] is HUVEC. The test is described as follows: Antiinflammatory activity in human HUVEC cells assessed as LPS induced VCAM-1 expression at 5 to 20 uM preincubated for 1 hrs followed by LPS stimulation and measured after 6 hrs by fluorescence analysis. Format: functional. To be noted: dose 5-20 µM, time 7 hrs.
For test [7], the system named is HUVEC. The test is described as follows: Antiinflammatory activity in human HUVEC cells assessed as TNFalpha induced NF-kappaB transactivation at 5 to 20 uM preincubated for 1 hrs followed by TNFalpha stimulation and measured after 6 hrs by fluorescence analysis. Format: functional. The conditions noted are these: dose 5-20 µM, time 7 hrs.
The test system of test [8] is HUVEC. The test can be described thus: Antiinflammatory activity in human HUVEC cells assessed as LPS induced NF-kappaB transactivation at 5 to 20 uM preincubated for 1 hrs followed by LPS stimulation and measured after 6 hrs by fluorescence analysis. Type of test: functional. To be noted: dose 5-20 µM, time 7 hrs.
In test [9] the test system is Mus musculus. The test is described as follows: Protective activity in Pde6brd10 mouse model of Retinitis pigmentosa assessed as decrease in NO production in retina at 5 mg/kg,ip for 14 days by Griess assay. Format: functional. To be noted: time 14 day. Also noted: scale not given: the % may be the effect or the level left. A general note: Griess reagent forms a coloured azo dye with nitrite.

The subject of test [10] is Mus musculus. The test can be described thus: Protective activity in Pde6brd10 mouse model of Retinitis pigmentosa assessed as decrease in IL-1beta production in retina at 5 mg/kg,ip for 14 days by ELISA. Also noted: scale not given: the % may be the effect or the level left. Format: functional. The conditions noted are these: time 14 day. In general terms: ELISA stands for enzyme-linked immunosorbent assay.

For test [11], the system named is Mus musculus. The test is described as follows: Protective activity in Pde6brd10 mouse model of Retinitis pigmentosa assessed as decrease in IL-6 production in retina at 5 mg/kg,ip for 14 days by ELISA. The conditions noted are these: time 14 day. Type of test: functional. Also noted: scale not given: the % may be the effect or the level left.
The test system of test [12] is Mus musculus. The test is described as follows: Protective activity in Pde6brd10 mouse model of Retinitis pigmentosa assessed as decrease in IL-12 production in retina at 5 mg/kg,ip for 14 days by ELISA. Type of test: functional. Also noted: scale not given: the % may be the effect or the level left. To be noted: time 14 day.
The test system of test [13] is Mus musculus. The test is described as follows: Protective activity in Pde6brd10 mouse model of Retinitis pigmentosa assessed as decrease in TNFalpha production in retina at 5 mg/kg,ip for 14 days by ELISA. Format: functional. On the set-up: scale not given: the % may be the effect or the level left. The conditions noted are these: time 14 day.
Test [14] has as its system Mus musculus. The test can be described thus: Protective activity in Pde6brd10 mouse model of Retinitis pigmentosa assessed as decrease in IL-1beta gene expression level in retina at 5 mg/kg,ip for 14 days by qRT-PCR analysis. Also noted: scale not given: the % may be the effect or the level left. Type of test: functional. To be noted: time 14 day.
Test [15] deals with Mus musculus. The test is described as follows: Protective activity in Pde6brd10 mouse model of Retinitis pigmentosa assessed as decrease in IL-6 gene expression level in retina at 5 mg/kg,ip for 14 days by qRT-PCR analysis. Format: functional. On the set-up: scale not given: the % may be the effect or the level left. To be noted: time 14 day. A general note: Quantitative PCR measures a nucleic acid by following its amplification.

The subject of test [16] is Mus musculus. The test can be described thus: Protective activity in Pde6brd10 mouse model of Retinitis pigmentosa assessed as decrease in IL-12 gene expression level in retina at 5 mg/kg,ip for 14 days by qRT-PCR analysis. Format: functional. On the set-up: scale not given: the % may be the effect or the level left. To be noted: time 14 day.
The subject of test [17] is Mus musculus. The test is described as follows: Protective activity in Pde6brd10 mouse model of Retinitis pigmentosa assessed as decrease in TNF-alpha gene expression level in retina at 5 mg/kg,ip for 14 days by qRT-PCR analysis. Type of test: functional. On the set-up: scale not given: the % may be the effect or the level left. The conditions noted are these: time 14 day.

Test [18] relates to Mus musculus. The test can be described thus: Protective activity in Pde6brd10 mouse model of Retinitis pigmentosa assessed as decrease in NF-kappaB expression level in retina at 5 mg/kg,ip for 14 days by Western blot analysis. Type of test: functional. Also noted: scale not given: the % may be the effect or the level left. The conditions noted are these: time 14 day.
Test [19] concerns J774.1. The test is described as follows: Antiinflammatory activity in mouse J774.1 cells assessed as inhibition of LPS-induced NO production at 10 microg/ml incubated for 48 hrs by Griess reagent based analysis. Format: functional.
Test [20] in a line: Antiinflammatory activity in human HAP1 cells assessed as inhibition of LPS-induced p38 MAPK activation at 5 uM. Type of test: functional.
The subject of test [21] is RAW264.7. The test can be described thus: Antiinflammatory activity in mouse RAW264.7 cells assessed as inhibition of LPS-induced NO production for 24 hrs by colorimetric analysis. Format: functional, cell-based. The conditions noted are these: RAW264.7, 24 h.
Test [22] can be described thus: Anti-osteoclastogenic activity in human BMDC assessed in inhibition of RANKL mediated osteoclast differentiation. Type of test: functional, cell-based.
Test [23] can be described thus: Antiinflammatory activity in human HAP1 cells assessed as inhibition of LPS-induced NO production at 5 uM. Format: functional.
Test [24] is described as follows: Antiinflammatory activity in human HAP1 cells assessed as inhibition of LPS-induced iNOS expression at 5 uM. Format: functional.
Test [25] can be described thus: Antiinflammatory activity in human HAP1 cells assessed as inhibition of LPS-induced NF-kappaB activation at 5 uM. Type of test: functional.
Test [26] can be described thus: Antiinflammatory activity in human HAP1 cells assessed as inhibition of LPS-induced ROS production at 5 uM. Type of test: functional.

Structures are written as SMILES.

As usually defined, the inhibition is the change of the read-out against control, counted positive when it falls. With `COc1ccc(/C=C/C(C[C@H](O)CCc2ccc(OC)c(OC)c2)OC)cc1OC` (stereo partly specified), the inhibition at 30 µM came out at 76% in [1], 91% in test [2], 91% in [3] and 91% in test [4].
For the compound `COc1cc(CC/C=C/C(=O)CCc2ccc(O)c(OC)c2)ccc1O`, the Activity is 26% in test [5], 17% in test [6], 7% in test [7] and 8% in test [8].
As to `COc1c2cc(c(OC)c1O)-c1cc(ccc1O)CC[C@@H](O)CCCC2`, the Activity in [9] came out at 21%; in test [10], 22%; in test [11] it was 12%; in test [12], 12%; in [13], 16%; in test [14], 41%. The Activity is reported as 31% in test [15], 38% in [16], 49% in [17] and 50% in test [18].
As to `COc1cc(O)c([C@H]2C[C@H](CCc3ccc(O)cc3)O[C@@H](c3ccc(O)cc3)[C@H]2O)c(O)c1C(=O)/C=C/c1ccc(O)cc1`, the inhibition at 10 µg/mL in [19] was found to be 37.6%.
By IC50 is commonly meant the concentration that inhibits the measured activity by half. For `Oc1ccc(CC[C@@H](O)CC/C=C/c2ccccc2)cc1O`, the inhibition at 5 µM in [20] amounted to 44%; in [23], 91%; in test [24] it was 85%; in test [25], 52%; in test [26] it was 90%. For the same compound, the IC50 turned out to be 420 nM in test [21] and 325 nM in test [22].
